In patent US6863647B2, “2-Ureido-thiazole derivatives, process for their preparation, and their use as antitumor agents” (Pharmacia & Upjohn S.p.A., priority 1998, dated 2005):

Target: cdk2/cyclin A complex (Homo sapiens, UniProt P24941)
Test: inhibition assay of cdk2/Cyclin A activity (MultiScreen-PH phosphocellulose filter, 33P-labelled histone H1)
Assay type: biochemical
Settings: histone H1 substrate, 25 μM ATP; inhibitor 0.0045 to 10 μM; read-out: inhibiting activity towards the cdk2/cyclin A complex (IC50)
Procedure: The inhibiting activity of putative cdk/cyclin inhibitors and the potency of selected compounds was determined through a method of assay based on the use of the MultiScreen-PH 96 well plate (Millipore), in which a phosphocellulose filter paper was placed at each well bottom allowing binding of positive charged substrate after a washing/filtration step.
When a radioactivity labelled phosphate moiety was transferred by the ser/threo kinase to the filter-bound histone, light emitted was measured in a scintillation counter.
The inhibition assay of cdk2/Cyclin A activity was performed according to the following protocol: • Kinase reaction: 1.5 μM histone H1 substrate, 25 μM ATP (0.5 μCi P^33γ-ATF), 30 ng Cyclin A/cdk2 complex, 10 μM inhibitor in a final volume of 100 μl buffer (TRIS HCl 10 mM pH 7.5, MgCl2 10 mM, 7.5 mM DTT) were added to each well of a 96 U bottom well plate. […] Plates were then washed 3 times with 150 μl/well PBS Ca^++/Mg^++ free and filtered by MultiScreen filtration system. • Detection: filters were allowed to dry at 37° C., then 100 μl/well scintillant were added and ^33P labelled histone H1 was detected by radioactivity counting in the Top-Count instrument. • Results: data were analysed and expressed as % inhibition referred to total activity of enzyme (=100%). […]

IC50: 0.56 µM
SMILES: Cc1cc(C)cc(NC(=O)Nc2ncc(C(C)C)s2)c1 [N-(5-isopropyl-1,3-thiazol-2-yl)-N′-(3,5-dimethylphenyl)urea]
